Measured values reported in patent US12435044B2, “Pyridazinone herbicides and pyridazinone intermediates used to prepare a herbicide” (FMC Corporation, priority 2018, dated 2025).

Legend:
Assay in all cases: Test K pre-/postemergence, mixtures of Cpd. No. 20 with metribuzin or rimsulfuron
Format in all cases: in vivo
[1] = test system: common waterhemp (AMATU; Amaranthus rudis)
Text: (§1) This test evaluated the effect of mixtures of Cpd. No. 20 with metribuzin or rimsulfuron on several plant species. Seeds of plant species selected from corn (ZEAMD; Zea mays, cv. ‘Pioneer 1184’), soybean (GLXMA; Glycine max, cv. Pioneer 35T58), giant foxtail (SETFA; Setaria faberi), palmer amaranth (AMAPA; Amaranthus palmeri), common waterhemp (AMATU; Amaranthus rudis), mare's tail (ERICA; Conyza canadensis), and common ragweed (AMBEL; Ambrosia artemisiifolia) were planted in pots containing Tama Silt Loam soil and treated preemergence with a directed soil spray using test chemicals formulated in a non-phytotoxic solvent mixture which included a surfactant.
(§2) At the same time, plants selected from these crop and weed species were planted in pots containing Redi-Earth® planting medium (Scotts Company, 14111 Scottslawn Road, Marysville, Ohio 43041) comprising spaghnum peat moss, vermiculite, wetting agent and starter nutrients and treated postemergence with test chemicals formulated in the same manner. Plants ranged in height from 2 to 10 cm and were in the one- to two-leaf stage for the postemergence treatment. Treated plants and untreated controls were maintained in a greenhouse for approximately 14-21 d, after which time all treated plants were compared to untreated controls and visually evaluated for injury. Plant response ratings, summarized in Tables K1 to K4, are based on a 0 to 100 scale where 0 is no effect and 100 is complete control. A dash (-) response means no test result. Test results are presented as a mean of 4 reps.

[2] = test system: mare's tail (ERICA; Conyza canadensis)
Text: as §1, §2

[3] = test system: common ragweed (AMBEL; Ambrosia artemisiifolia)
Text: as §1, §2

[4] = test system: giant foxtail (SETFA; Setaria faberi)
Text: as §1, §2

[5] = test system: corn (ZEAMD; Zea mays, cv. ‘Pioneer 1184’)
Text: as §1, §2

[6] = test system: soybean (GLXMA; Glycine max, cv. Pioneer 35T58)
Text: as §1, §2

[7] = test system: palmer amaranth (AMAPA; Amaranthus palmeri)
Text: as §1, §2

With CCS(=O)(=O)c1cccnc1S(=O)(=O)NC(=O)Nc1nc(OC)cc(OC)n1 [Rimsulfuron, rimsulfuron, reference compound] the “AMATU plant response rating, 0 to 100 scale” value (shortened to “AMATU plant response rating”) ([1]; postemergence, 8 g a.i./ha) was 75, the “AMATU plant response rating” value ([1]; postemergence, 16 g a.i./ha) was 77 and the “AMATU plant response rating” value ([1]; preemergence, 8 g a.i./ha) was 51. For the same compound, the “AMATU plant response rating” value ([1]; preemergence, 16 g a.i./ha) was 73, the “ERICA plant response rating, 0 to 100 scale” value (“ERICA plant response rating” below) ([2]; postemergence, 8 g a.i./ha) was 50 and the “ERICA plant response rating” value ([2]; postemergence, 16 g a.i./ha) was 70. For the same compound, the “ERICA plant response rating” value ([2]; preemergence, 8 g a.i./ha) was 95, the “ERICA plant response rating” value ([2]; preemergence, 16 g a.i./ha) was 98 and the “AMBEL plant response rating, 0 to 100 scale” value (from here on “AMBEL plant response rating”) ([3]; postemergence, 8 g a.i./ha) was 40. For the same compound, the “AMBEL plant response rating” value ([3]; postemergence, 16 g a.i./ha) was 60, the “AMBEL plant response rating” value ([3]; preemergence, 8 g a.i./ha) was 0 and the “AMBEL plant response rating” value ([3]; preemergence, 16 g a.i./ha) was 43. For the same compound, the “SETFA plant response rating, 0 to 100 scale” value (shortened to “SETFA plant response rating”) ([4]; postemergence, 8 g a.i./ha) was 80, the “SETFA plant response rating” value ([4]; postemergence, 16 g a.i./ha) was 97 and the “SETFA plant response rating” value ([4]; preemergence, 8 g a.i./ha) was 50. The “SETFA plant response rating” value ([4]; preemergence, 16 g a.i./ha) was 73, the “ZEAMD plant response rating, 0 to 100 scale” value (“ZEAMD plant response rating” below) ([5]; postemergence, 8 g a.i./ha) was 0 and the “ZEAMD plant response rating” value ([5]; postemergence, 16 g a.i./ha) was 10. For the same compound, the “ZEAMD plant response rating” value ([5]; preemergence, 8 g a.i./ha) was 0, the “ZEAMD plant response rating” value ([5]; preemergence, 16 g a.i./ha) was 0 and the “GLXMA plant response rating, 0 to 100 scale” value (from here on “GLXMA plant response rating”) ([6]; postemergence, 8 g a.i./ha) was 75. The “GLXMA plant response rating” value ([6]; postemergence, 16 g a.i./ha) was 93, the “GLXMA plant response rating” value ([6]; preemergence, 8 g a.i./ha) was 0 and the “GLXMA plant response rating” value ([6]; preemergence, 16 g a.i./ha) was 0. The “AMAPA plant response rating, 0 to 100 scale” value (shortened to “AMAPA plant response rating”) ([7]; postemergence, 8 g a.i./ha) was 60, the “AMAPA plant response rating” value ([7]; postemergence, 16 g a.i./ha) was 60 and the “AMAPA plant response rating” value ([7]; preemergence, 8 g a.i./ha) was 33. The “AMAPA plant response rating” value ([7]; preemergence, 16 g a.i./ha) was 40.

CSc1nnc(C(C)(C)C)c(=O)n1N [Metribuzin, metribuzin, reference compound] was tested, and the “AMATU plant response rating” value ([1]; postemergence, 62 g a.i./ha) was 37, the “AMATU plant response rating” value ([1]; postemergence, 125 g a.i./ha) was 82 and the “AMATU plant response rating” value ([1]; preemergence, 62 g a.i./ha) was 53. The “AMATU plant response rating” value ([1]; preemergence, 125 g a.i./ha) was 86, the “ERICA plant response rating” value ([2]; postemergence, 62 g a.i./ha) was 10 and the “ERICA plant response rating” value ([2]; postemergence, 125 g a.i./ha) was 13. The “ERICA plant response rating” value ([2]; preemergence, 62 g a.i./ha) was 100, the “ERICA plant response rating” value ([2]; preemergence, 125 g a.i./ha) was 100 and the “AMBEL plant response rating” value ([3]; postemergence, 62 g a.i./ha) was 55. For the same compound, the “AMBEL plant response rating” value ([3]; postemergence, 125 g a.i./ha) was 62, the “AMBEL plant response rating” value ([3]; preemergence, 62 g a.i./ha) was 40 and the “AMBEL plant response rating” value ([3]; preemergence, 125 g a.i./ha) was 100. The “SETFA plant response rating” value ([4]; postemergence, 62 g a.i./ha) was 0, the “SETFA plant response rating” value ([4]; postemergence, 125 g a.i./ha) was 10 and the “SETFA plant response rating” value ([4]; preemergence, 62 g a.i./ha) was 30. The “SETFA plant response rating” value ([4]; preemergence, 125 g a.i./ha) was 80, the “ZEAMD plant response rating” value ([5]; postemergence, 62 g a.i./ha) was 0 and the “ZEAMD plant response rating” value ([5]; postemergence, 125 g a.i./ha) was 10. For the same compound, the “ZEAMD plant response rating” value ([5]; preemergence, 62 g a.i./ha) was 0, the “ZEAMD plant response rating” value ([5]; preemergence, 125 g a.i./ha) was 0 and the “GLXMA plant response rating” value ([6]; postemergence, 62 g a.i./ha) was 33. For the same compound, the “GLXMA plant response rating” value ([6]; postemergence, 125 g a.i./ha) was 53, the “GLXMA plant response rating” value ([6]; preemergence, 62 g a.i./ha) was 0 and the “GLXMA plant response rating” value ([6]; preemergence, 125 g a.i./ha) was 0. The “AMAPA plant response rating” value ([7]; postemergence, 62 g a.i./ha) was 35, the “AMAPA plant response rating” value ([7]; postemergence, 125 g a.i./ha) was 47 and the “AMAPA plant response rating” value ([7]; preemergence, 62 g a.i./ha) was 78. The “AMAPA plant response rating” value ([7]; preemergence, 125 g a.i./ha) was 70.
